`CCCC(=O)OCOC(=O)c1sc(C(C)(C)c2c(Cl)cc(-n3ncc(=O)[nH]c3=O)cc2Cl)nc1-c1ccccc1` [Compound 108] gave a melting point of 146 °C.
Work on `C#CCOC(=O)c1sc(C(C)(C)c2c(Cl)cc(-n3ncc(=O)[nH]c3=O)cc2Cl)nc1-c1ccccc1` [Compound 88] yielded a melting point of 180 °C.
In the case of `CC(C)(c1nc(-c2ccccc2)c(C(=O)OCOC(=O)C2CCCCC2)s1)c1c(Cl)cc(-n2ncc(=O)[nH]c2=O)cc1Cl` [Compound 125], the melting point is reported as 130 °C.
Compound `Cc1oc(=O)oc1COC(=O)Cc1sc(C(C)(C)c2c(Cl)cc(-n3ncc(=O)[nH]c3=O)cc2Cl)nc1-c1ccccc1` [Compound 72] has a melting point of 149 °C.
`Cc1oc(=O)oc1CSC(=O)c1sc(C(C)(C)c2c(Cl)cc(-n3ncc(=O)[nH]c3=O)cc2Cl)nc1-c1ccccc1` [Compound 71] showed a melting point of 97 °C.
For `CC(C)(c1nc(-c2ccccc2)c(C(=O)OC2CCOC2=O)s1)c1c(Cl)cc(-n2ncc(=O)[nH]c2=O)cc1Cl` (centres unmarked) [Compound 3], the melting point was 208 °C.
Compound `CCOC(=O)CCc1sc(C(C)(C)c2c(Cl)cc(-n3ncc(=O)[nH]c3=O)cc2Cl)nc1-c1ccccc1` [Compound 80] has a melting point of 155 °C.
With `CC(C)(c1nc(-c2ccccc2)c(C(=O)OCCN2CCN(S(=O)(=O)N3CCCC3)CC2)s1)c1c(Cl)cc(-n2ncc(=O)[nH]c2=O)cc1Cl` [Compound 146] the melting point was 196 °C.
In the case of `CC(C)(c1nc(-c2cccs2)c(CC(=O)OC2CCOC2=O)s1)c1c(Cl)cc(-n2ncc(=O)[nH]c2=O)cc1Cl` (centres unmarked) [Compound 5], the melting point is reported as 110 °C.
Compound `CC(C)(c1nc(-c2ccccc2)c(C(=O)OCCNS(=O)(=O)N2CCCCC2)s1)c1c(Cl)cc(-n2ncc(=O)[nH]c2=O)cc1Cl` [Compound 77] has a melting point of 126 °C.
For `COC(=O)C(CCCO)OC(=O)c1sc(C(C)(C)c2c(Cl)cc(-n3ncc(=O)[nH]c3=O)cc2Cl)nc1-c1ccccc1` (centres unmarked) [Compound 121], the melting point was 100 °C.
With `C[S+]([O-])CSC(=O)Cc1sc(C(C)(C)c2c(Cl)cc(-n3ncc(=O)[nH]c3=O)cc2Cl)nc1-c1ccccc1` (centres unmarked) [Compound 104] the melting point was 154 °C.
With `C=CCOC(=O)c1sc(C(C)(C)c2c(Cl)cc(-n3ncc(=O)[nH]c3=O)cc2Cl)nc1-c1ccccc1` [Compound 87] the melting point was 172 °C.
Compound `COCCOC(=O)OC(C)OC(=O)c1sc(C(C)(C)c2c(Cl)cc(-n3ncc(=O)[nH]c3=O)cc2Cl)nc1-c1ccccc1` (centres unmarked) [Compound 99] has a melting point of 88 °C.
`CC(C)(c1nc(-c2ccccc2)c(C(=O)OC2COC(=O)C2O)s1)c1c(Cl)cc(-n2ncc(=O)[nH]c2=O)cc1Cl` (centres unmarked) [Compound 131] gave a melting point of 144 °C.
`CC(C)(c1nc(-c2ccccc2)c(C(=O)OC2CCCC(O)C2)s1)c1c(Cl)cc(-n2ncc(=O)[nH]c2=O)cc1Cl` (centres unmarked) [Compound 140] showed a melting point of 175 °C.
Work on `CC(OC(=O)OCCS(C)(=O)=O)OC(=O)c1sc(C(C)(C)c2c(Cl)cc(-n3ncc(=O)[nH]c3=O)cc2Cl)nc1-c1ccccc1` (centres unmarked) [Compound 110] yielded a melting point of 104 °C.
`CC(OC(=O)c1sc(C(C)(C)c2c(Cl)cc(-n3ncc(=O)[nH]c3=O)cc2Cl)nc1-c1ccccc1)OC(=O)C(c1ccccc1)C1CCCC1` (centres unmarked) [Compound 141] showed a melting point of 110 °C.
`CC(C)(c1nc(-c2ccccc2)c(C(=O)OCCN2CCN(S(N)(=O)=O)CC2)s1)c1c(Cl)cc(-n2ncc(=O)[nH]c2=O)cc1Cl` [Compound 79] showed a melting point of 133 °C.
For `CN(C)S(=O)(=O)N1CCN(CCO)CC1` [Compound 83], the melting point was 186 °C.
`Cc1nc(C(C)(C)c2c(Cl)cc(-n3ncc(=O)[nH]c3=O)cc2Cl)sc1C(=O)c1ccccc1` [Compound 107] showed a melting point of 174 °C.
`CC(C)(c1nc(-c2ccccc2)c(CCC(=O)OC2CCOC2=O)s1)c1c(Cl)cc(-n2ncc(=O)[nH]c2=O)cc1Cl` (centres unmarked) [Compound 81] showed a melting point of 190 °C.
In the case of `CN(C)S(=O)(=O)N1CCN(CCOC(=O)c2sc(C(C)(C)c3c(Cl)cc(-n4ncc(=O)[nH]c4=O)cc3Cl)nc2-c2ccccc2)CC1` [Compound 84], the melting point is reported as 220 °C.
`CN1CCN(CCOC(=O)c2sc(C(C)(C)c3c(Cl)cc(-n4ncc(=O)[nH]c4=O)cc3Cl)nc2-c2ccccc2)S1(=O)=O` [Compound 128] gave a melting point of 112 °C.
`CC(C)(c1nc(-c2ccccc2)c(C(=O)SC2CCOC2=O)s1)c1c(Cl)cc(-n2ncc(=O)[nH]c2=O)cc1Cl` (centres unmarked) [Compound 4] showed a melting point of 212 °C.
In the case of `CCOC(=O)C(Cl)(Cl)c1ccccc1-c1nc(C(C)(C)c2c(Cl)cc(-n3ncc(=O)[nH]c3=O)cc2Cl)no1` [Compound 6], the melting point is reported as 157 °C.
For `CCCCCCCCCCCCCCCOC(=O)Cc1sc(C(C)(C)c2c(Cl)cc(-n3ncc(=O)[nH]c3=O)cc2Cl)nc1-c1ccccc1` [Compound 2], the melting point was 80 °C.
In the case of `CC(C)(c1nc(-c2ccccc2)c(CSC2CCOC2=O)s1)c1c(Cl)cc(-n2ncc(=O)[nH]c2=O)cc1Cl` (centres unmarked) [Compound 116], the melting point is reported as 100 °C.
With `CC(C)(c1nc(-c2ccccc2)c(C(=O)OCC(F)(F)F)s1)c1c(Cl)cc(-n2ncc(=O)[nH]c2=O)cc1Cl` [Compound 78] the melting point was 180 °C.
With `CC(C)(c1nc(-c2ccccc2)c(C(=O)OCC2COC(=S)O2)s1)c1c(Cl)cc(-n2ncc(=O)[nH]c2=O)cc1Cl` (centres unmarked) [Compound 111] the melting point was 130 °C.
`CON(C)C(=O)c1sc(C(C)(C)c2c(Cl)cc(-n3ncc(=O)[nH]c3=O)cc2Cl)nc1-c1ccccc1` [Compound 89] gave a melting point of 112 °C.
In the case of `COCCOCCOC(=O)c1sc(C(C)(C)c2c(Cl)cc(-n3ncc(=O)[nH]c3=O)cc2Cl)nc1-c1ccccc1` [Compound 82], the melting point is reported as 151 °C.
Compound `CC1(C)OCC(COC(=O)c2sc(C(C)(C)c3c(Cl)cc(-n4ncc(=O)[nH]c4=O)cc3Cl)nc2-c2ccccc2)O1` (centres unmarked) [Compound 92] has a melting point of 163 °C.
In the case of `CC(C)(c1nc(-c2ccccc2)c(CC(=O)OC2CCOC2=O)s1)c1c(Cl)cc(-n2ncc(=O)[nH]c2=O)cc1Cl` (centres unmarked) [Compound 1], the melting point is reported as 72 °C.
`CC(C)(c1nc(-c2ccccc2)c(C(=O)OC2CCCC(OC(=O)c3sc(C(C)(C)c4c(Cl)cc(-n5ncc(=O)[nH]c5=O)cc4Cl)nc3-c3ccccc3)C2)s1)c1c(Cl)cc(-n2ncc(=O)[nH]c2=O)cc1Cl` (centres unmarked) [Compound 139] gave a melting point of 180 °C.
In the case of `CN(C)S(=O)(=O)NCCOC(=O)c1sc(C(C)(C)c2c(Cl)cc(-n3ncc(=O)[nH]c3=O)cc2Cl)nc1-c1ccccc1` [Compound 76], the melting point is reported as 150 °C.
`CCOP(=O)(COC(=O)c1sc(C(C)(C)c2c(Cl)cc(-n3ncc(=O)[nH]c3=O)cc2Cl)nc1-c1ccccc1)OCC` gave a melting point of 88 °C.
For `CC(=O)c1sc(C(C)(C)c2c(Cl)cc(-n3ncc(=O)[nH]c3=O)cc2Cl)nc1-c1ccccc1` [Compound 105], the melting point was 212 °C.
